Reference: patent US9732089B2, “Substituted pyrazolo[1,5-a]pyrimidines and their use in the treatment of medical disorders” (Lysosomal Therapeutics Inc., priority 2014, dated 2017)
Converted amounts (≈) assume the structure as drawn.

Experiment: Compound solubility in water
Assay type: physicochemical

| solubility [µg/mL] | Compound |
| --- | --- |
| 5.1 (≈ 14 µM) | Cc1cc(Cl)nc2c(C(=O)NC(C)(C)c3ccc(Cl)cc3)cnn12 [III-69] |
| < 1.5 | Cc1cc(C)n2ncc(C(=O)Nc3ccc(-c4ccncc4)cc3)c2n1 [III-56] |
| < 1.5 | Cc1cc(C)n2ncc(C(=O)Nc3ccc(Oc4ccccc4)cc3)c2n1 [III-5] |
| 1.4 (≈ 4.32 µM) | COc1ccccc1[C@H](C)NC(=O)c1cnn2c(C)cc(C)nc12 [III-61] |
| 26 (≈ 87.7 µM) | C#CC1CCC(NC(=O)c2cnn3c(C)cc(C)nc23)CC1 (stereo not drawn) [III-13] |
| 27.6 (≈ 88.4 µM) | Cc1cc(C)n2ncc(C(=O)N[C@H](C)c3ccc(F)cc3)c2n1 [III-65] |
| 39 (≈ 128 µM) | Cc1ccn2ncc(CNc3ccc(-c4ncco4)cc3)c2n1 [III-26] |
| 0.8 (≈ 2.61 µM) | Cc1cc(C)n2ncc(C(=O)NC3CCc4ccccc43)c2n1 (stereo not drawn) [III-79] |
| 0.5 (≈ 1.63 µM) | Cc1cc(C)n2ncc(C(=O)Nc3ccc4[nH]ncc4c3)c2n1 [III-41] |
| 5.1 (≈ 14.7 µM) | Cc1cc(C)n2ncc(C(=O)Nc3ccc(C#CCN(C)C)cc3)c2n1 [IV-2] |
| 0.5 (≈ 1.63 µM) | Cc1cc(C)n2ncc(C(=O)Nc3ccc4c(c3)CCC4)c2n1 [IV-5] |
| 2 (≈ 5.81 µM) | Cc1cc(C)n2ncc(C(=O)NC(C)(C)c3ccc(F)cc3F)c2n1 [III-70] |
| 3 (≈ 8.97 µM) | Cc1cc(C)n2ncc(C(=O)Nc3ccc(-c4cocn4)nc3)c2n1 [III-19] |
| 2.1 (≈ 6.06 µM) | Cc1cc(C)n2ncc(C(=O)Nc3ccc(-c4cnn(C)c4)cc3)c2n1 [III-54] |
| < 1.5 | Cc1cc(C)n2ncc(C(=O)Nc3ccc(CCCC(=O)O)cc3)c2n1 [III-34] |
| < 1.5 | Cc1cc(C)n2ncc(C(=O)Nc3ccc(-c4cscn4)cc3)c2n1 [III-27] |
| 0.4 (≈ 1.31 µM) | Cc1cc(C)n2ncc(C(=O)Nc3ccc4cn[nH]c4c3)c2n1 [III-42] |
| 2.6 (≈ 8.11 µM) | Cc1cc(C)n2ncc(C(=O)NC3CCCc4ccccc43)c2n1 (stereo not drawn) [III-58] |
| < 1.5 | Cc1cc(C)n2ncc(C(=O)Nc3cc(-c4ccccc4)on3)c2n1 [III-12] |
| < 1.5 | Cc1cc(C)n2ncc(C(=O)Nc3ccc(N4CCCCC4)cc3)c2n1 [IV-3] |
| < 1.5 | Cc1cc(C)n2ncc(C(=O)Nc3ccc(-c4ccco4)nc3)c2n1 [III-22] |

| solubility [µg/mL] | Compound |
| --- | --- |
| 33 (≈ 99.3 µM) | Cc1cc(C)n2ncc(C(=O)Nc3ccc(-c4cc[nH]n4)cc3)c2n1 [III-31] |
| < 1.5 | Cc1cc(C)n2ncc(C(=O)Nc3nc4ccccc4[nH]3)c2n1 [III-28] |
| < 1.5 | C#Cc1ccc(NC(=O)c2cnn3c(C)cc(C)nc23)cc1 [IV-1] |
| < 1.5 | Cc1cc(C)n2ncc(C(=O)Nc3ccc(-c4ncco4)cc3)c2n1 [III-11] |
| 0.6 (≈ 1.93 µM) | Cc1cc(C)n2ncc(C(=O)Nc3ccc4c(c3)OCO4)c2n1 [IV-4] |
| 34 (≈ 87.5 µM) | Cc1cc(C)n2ncc(C(=O)Nc3ccc4c(c3)C(C3=NCCN3)CCC4)c2n1 (stereo not drawn) [III-73] |
| 4.2 (≈ 13.8 µM) | C#Cc1ccc(NC(=O)c2cnn3c(C)cc(NC)nc23)cc1 [III-77] |
| 0.1 (≈ 0.237 µM) | Cc1cc(C)n2ncc(C(=O)Nc3ccc(Cl)c(C(C)Oc4cccnc4)c3)c2n1 (stereo not drawn) [III-75] |
| 11.9 (≈ 36.2 µM) | Cc1cc(C)n2ncc(C(=O)N[C@@H](C)c3cccc(Cl)c3)c2n1 [III-63] |
| > 64 | Cc1cc(C)n2ncc(CNc3ccc(-c4cocn4)nc3)c2n1 [III-24] |
| 0.2 (≈ 0.726 µM) | C#Cc1ccc(NCc2cnn3c(C)cc(C)cc23)cc1 [III-74] |
| < 1.5 | COCC#Cc1ccc(NC(=O)c2cnn3c(C)cc(C)nc23)cc1 [III-4] |
| < 1.5 | CCCCCOc1ccc(NC(=O)c2cnn3c(C)cc(C)nc23)cc1 [III-32] |
| 0.3 (≈ 0.939 µM) | Cc1cc(C)n2ncc(C(=O)Nc3ccc4[nH]c(C)cc4c3)c2n1 [III-40] |
| < 1.5 | Cc1cc(C)n2ncc(C(=O)Nc3ccc(-c4cnoc4)cc3)c2n1 [III-17] |
| 0.3 (≈ 0.934 µM) | Cc1cc(C)n2ncc(C(=O)Nc3ccc4nc(C)oc4c3)c2n1 [III-44] |
| 10 (≈ 32.2 µM) | Cc1cc(C)n2ncc(C(=O)Nc3ccc(C(C)O)cc3)c2n1 (stereo not drawn) [III-35] |
| < 1.5 | Cc1cc(C)n2ncc(C(=O)Nc3ccc(-c4cnsc4)cc3)c2n1 [III-16] |
| < 1.5 | C#Cc1ccc(NC(=O)c2cnn3c(C)cc(C)nc23)cn1 [III-2] |
| < 1.5 | Cc1cc(C)n2ncc(C(=O)Nc3ccc(-c4ncc[nH]4)cc3)c2n1 [III-30] |
| 0.9 (≈ 2.93 µM) | Cc1cc(C)n2ncc(C(=O)Nc3ccc4oncc4c3)c2n1 [III-47] |

| solubility [µg/mL] | Compound |
| --- | --- |
| 26.1 (≈ 81.7 µM) | Cc1cc(C)n2ncc(CNc3ccc(-c4cocn4)cc3)c2n1 [III-37] |
| 2.2 (≈ 6.42 µM) | Cc1cc(C)n2ncc(C(=O)NC(C)(C)c3ccc(Cl)cc3)c2n1 [III-67] |
| 1.2 (≈ 3.75 µM) | Cc1cc(C)n2ncc(C(=O)Nc3ccc4nc(C)[nH]c4c3)c2n1 [III-45] |
| 2.6 (≈ 7.12 µM) | Cc1cc(C)n2ncc(C(=O)Nc3cc(C4(C(F)(F)F)CC4)on3)c2n1 [III-18] |
| 2.1 (≈ 5.78 µM) | Cc1cc(Cl)n2ncc(C(=O)NC(C)(C)c3ccc(Cl)cc3)c2n1 [III-68] |
| < 1.5 | C#Cc1ccc(NC(=O)c2cnn3c(NC)cc(C)nc23)cc1 [III-78] |
| < 1.5 | C#CCOc1ccc(NC(=O)c2cnn3c(C)cc(C)nc23)cc1 [III-33] |
| 59.6 (≈ 176 µM) | Cc1cc(C)n2ncc(C(=O)Nc3ccc(CCC(=O)O)cc3)c2n1 [III-36] |
| < 1.5 | Cc1cc(C)n2ncc(C(=O)Nc3ccc(N=[N+]=[N-])cc3)c2n1 [III-38] |
| 0.3 (≈ 0.78 µM) | Cc1cc(C)n2ncc(C(=O)Nc3ccc4oc(-c5ccncc5)nc4c3)c2n1 [III-48] |
| 8 (≈ 27 µM) | C#C[C@H]1CC[C@@H](NC(=O)c2cnn3c(C)cc(C)nc23)CC1 [III-15] |
| < 1.5 | Cc1cc(C)n2ncc(C(=O)Nc3ccc(-c4ccco4)cc3)c2n1 [III-55] |
| 2.5 (≈ 7.71 µM) | COc1ccccc1[C@@H](C)NC(=O)c1cnn2c(C)cc(C)nc12 [III-62] |
| 2.3 (≈ 6.82 µM) | Cc1cc(C)n2ncc(C(=O)Nc3ccc4nc(C)sc4c3)c2n1 [III-50] |
| 20.6 (≈ 61.2 µM) | Cc1cc(C)n2ncc(C(=O)NC(C)C3CCC(F)(F)CC3)c2n1 (stereo not drawn) [III-66] |
| 54 (≈ 177 µM) | Cc1ccn2ncc(CNc3ccc(-c4cocn4)cc3)c2n1 [III-25] |
| 21.4 (≈ 62.1 µM) | CO[C@H]1CC[C@H](C(C)(C)NC(=O)c2cnn3c(C)cc(C)nc23)CC1 [III-71] |
| < 1.5 | Cc1cc(C)n2ncc(C(=O)Nc3ccc(-c4cccs4)cc3)c2n1 [III-39] |
| 0.4 (≈ 1.07 µM) | Cc1cc(C)n2ncc(C(=O)Nc3ccc4[nH]c(-c5ccco5)nc4c3)c2n1 [III-49] |
| 7.2 (≈ 23.1 µM) | Cc1cc(C)n2ncc(C(=O)N[C@@H](C)c3ccccc3F)c2n1 [III-60] |
| 7.1 (≈ 19.8 µM) | CCCCCO[C@H]1CC[C@H](NC(=O)c2cnn3c(C)cc(C)nc23)CC1 [III-59] |

| solubility [µg/mL] | Compound |
| --- | --- |
| < 1.5 | Cc1cc(C)n2ncc(C(=O)Nc3ccc(-c4ccon4)cc3)c2n1 [III-9] |
| < 1.5 | Cc1cc(C)n2ncc(C(=O)Nc3ccc(-c4cocn4)cc3)c2n1 [III-10] |
| < 1.5 | Cc1cc(C)n2ncc(C(=O)Nc3ccc(-c4ccccc4)cc3)c2n1 [III-3] |
| 0.06 (≈ 0.147 µM) | Cc1cc(C)n2ncc(C(=O)Nc3ccc(Cl)c(COc4cccnc4)c3)c2n1 [III-51] |
| < 1.5 | Cc1cc(C)n2ncc(C(=O)Nc3ccc(-n4ccnc4)cc3)c2n1 [III-6] |
| < 0.05 | Cc1cc(C)n2ncc(C(=O)Nc3ccc(Cl)c(-c4cnco4)c3)c2n1 [III-53] |
| 0.05 (≈ 0.144 µM) | Cc1cc(C)n2ncc(C(=O)Nc3ccc(C)c(-c4ncco4)c3)c2n1 [III-52] |
| 15.1 (≈ 43.8 µM) | CO[C@H]1CC[C@@H](C(C)(C)NC(=O)c2cnn3c(C)cc(C)nc23)CC1 [III-72] |
| 5.4 (≈ 16.9 µM) | COCC#Cc1ccc(NCc2cnn3c(C)cc(C)nc23)cc1 [III-29] |
| < 1.5 | C#Cc1ccc(NC(=O)c2cnn3c(C)cc(C)nc23)nc1 [III-1] |
| < 1.5 | Cc1cc(C)n2ncc(C(=O)Nc3ccc(-c4cccs4)nc3)c2n1 [III-20] |
| 0.7 (≈ 2.13 µM) | Cc1cc(C)n2ncc(C(=O)N[C@H](C)c3ccc(Cl)cc3)c2n1 [III-64] |
| < 1.5 | C#Cc1ccc(NC(=O)c2cnn3c(C)cc(C)nc23)c(OC)c1 [III-8] |
| < 1.5 | Cc1cc(C)n2ncc(C(=O)Nc3ccc(-c4nccs4)cc3)c2n1 [III-7] |
| 17.6 (≈ 59.4 µM) | C#C[C@H]1CC[C@H](NC(=O)c2cnn3c(C)cc(C)nc23)CC1 [III-14] |
| < 1.5 | Cc1cc(C)n2ncc(C(=O)Nc3ccc(-c4ccncc4)nc3)c2n1 [III-21] |
| < 1.5 | Cc1cc(C)n2ncc(C(=O)Nc3ccc(-c4cnn(C)c4)nc3)c2n1 [III-23] |
| 33.4 (≈ 104 µM) | Cc1cc(C)n2ncc(C(=O)Nc3ccc4c(c3)CCNC4)c2n1 [III-46] |
